According to paper PMC10377586 (Biomolecules, 2023):

Experiments:
rat D1 receptor = molecular target: T1, rat D1 receptor (Rattus norvegicus, UniProt P18901); test: Radioligand binding [3H]SCH23390, rat brain tissue; conditions: for Ki: native rat D1 receptor, read-out: rD1 [3H]SCH23390 Ki ± SEM; for inhibition at 1 µM: read-out: rD1 [3H]SCH23390 % inhibition ± SEM at 1 µM
T1 construct: source of native rat D1 receptor protein; from tissue; host or cells: rat striatum (methods) / rat brain cortical membranes
Experimental: Rat brain cortical membranes were used as source of native rat D1 receptor protein, and human D2 receptor was recombinantly expressed in HEK293 cells.
Rat striatum tissue was thawed in 50 volumes of ice-cold 50 mM potassium phosphate buffer, pH 7.4, homogenized and centrifuged at 20,000× g for 20 min. The resulting pellet was resuspended in the same quantity of the buffer and centrifuged again for 20 min. Binding experiments were conducted in 96-well microplates in a total volume of 250 μL of appropriate buffers. Reaction mix included 50 μL solution of test compound, 50 μL of radioligand, and 150 μL of tissue suspension (3 mg/mL). [^3H]SCH23390 (spec. act. 81.9 Ci/mmol, PerkinElmer, NET 930) was used for labeling the D1-receptor. For measuring unspecific binding, cis(Z)flupentixol—5 μM was applied. Samples were incubated at 30 °C for 60 min. The incubation was terminated by rapid filtration over glass fiber filters GF/B using a Harvester (PerkinElmer, USA). The radioactivity was measured in MicroBeta TriLux 1450—liquid scintillation counter (PerkinElmer). Each compound was tested in a screening assay in duplicate at final concentrations of 1 µM. Results were expressed as a percent of inhibition of specific binding.

human MAO-B = molecular target: T2, human MAO-B (Homo sapiens, UniProt P27338); test: Amplex Red monoamine oxidase assay, MAO-B; format: biochemical; conditions: human recombinant MAO-B; read-out: MAO-B IC50 ± SEM
T2 construct: purchased Sigma Aldrich M7441
T2 sequence (P27338 1-520): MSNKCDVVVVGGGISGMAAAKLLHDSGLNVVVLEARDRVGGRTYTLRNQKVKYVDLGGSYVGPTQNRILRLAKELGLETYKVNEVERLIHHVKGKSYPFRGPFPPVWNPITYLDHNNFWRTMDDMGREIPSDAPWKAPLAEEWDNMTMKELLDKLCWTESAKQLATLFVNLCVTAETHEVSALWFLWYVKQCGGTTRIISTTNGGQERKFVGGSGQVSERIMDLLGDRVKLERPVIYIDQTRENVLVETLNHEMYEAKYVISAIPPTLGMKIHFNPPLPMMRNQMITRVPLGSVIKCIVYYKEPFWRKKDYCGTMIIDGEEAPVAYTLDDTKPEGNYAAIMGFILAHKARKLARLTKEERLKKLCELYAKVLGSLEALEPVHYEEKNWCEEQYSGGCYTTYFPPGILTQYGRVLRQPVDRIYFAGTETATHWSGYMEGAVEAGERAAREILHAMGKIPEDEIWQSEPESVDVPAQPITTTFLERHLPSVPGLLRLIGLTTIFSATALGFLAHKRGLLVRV

human A3 (hA3) ARs = molecular target: T3, human A3 (hA3) ARs (Homo sapiens, UniProt P0DMS8); test: Radioligand binding [3H]PSB-11, CHO cell membranes; conditions: for Ki: CHO cell membranes, read-out: hA3 [3H]PSB-11 Ki ± SEM; for inhibition at 1 µM: read-out: hA3 [3H]PSB-11 % inhibition ± SEM at 1 µM
T3 construct: expressed in transfected cells; host or cells: CHO cells (membranes)
T3 sequence (P0DMS8 1-318): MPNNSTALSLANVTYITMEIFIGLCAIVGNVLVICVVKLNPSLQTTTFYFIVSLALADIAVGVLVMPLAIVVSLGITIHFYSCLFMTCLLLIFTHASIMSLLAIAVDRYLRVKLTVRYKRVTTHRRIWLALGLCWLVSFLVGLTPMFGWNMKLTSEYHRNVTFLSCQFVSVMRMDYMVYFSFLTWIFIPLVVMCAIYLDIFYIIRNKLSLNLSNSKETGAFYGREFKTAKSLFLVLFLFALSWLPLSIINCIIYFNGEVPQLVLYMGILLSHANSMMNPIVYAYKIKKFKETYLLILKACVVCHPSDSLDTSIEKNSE
Experimental: The final compounds were tested in radioligand binding assays to evaluate their affinity for all four ARs subtypes (see Table 2). Rat brain cortical membrane preparations were used as a source of rat A1 (rA1) ARs, and rat brain striatal membrane preparations served as a source of rat A2A (rA2A) ARs. For A2B- and A3AR assays, membrane preparations of Chinese hamster ovary (CHO) cells recombinantly expressing either human A2B (hA2B) or human A3 (hA3) ARs were employed.
Adenosine receptor radioligand binding assays were performed as previously described using rat brain cortical membrane preparations for A1 and rat brain striatal membrane preparations for A2A AR assays. Frozen rat brains (unstripped) were obtained from Pel Freez, Rogers, AR, USA. For assays at human AR subtypes, cell membranes of CHO cells recombinantly expressing the respective receptor were used. The following compounds were employed as radioligands: A1: [^3H]2-chloro-N^6-cyclopentyladenosine ([^3H]CCPA); A2A: [^3H]3-(3-hydroxypropyl)-7-methyl-8-(m-methoxystyryl)-1-propargylxanthine ([^3H]MSX-2); A2B: [^3H]8-(4-(4-(4-chlorophenyl)piperazine-1-sulfonyl)phenyl)-1-propylxanthine ([^3H]PSB-603); A3: [^3H]phenyl-8-ethyl-4-methyl-(8R)-4,5,7,8-tetrahydro-1H-imidazo[2,1-i]purine-5-one ([^3H]PSB-11). Initially, a single high concentration of compound was tested (1 µM). For potent compounds, full concentration–inhibition curves were determined using six to ten different concentrations of test compound spanning three orders of magnitude. At least three independent experiments were performed. Data were analyzed using GraphPad PRISM program version 4.0 or higher (Graph Pad, San Diego, CA, USA).

T1 sequence (P18901 whole entry): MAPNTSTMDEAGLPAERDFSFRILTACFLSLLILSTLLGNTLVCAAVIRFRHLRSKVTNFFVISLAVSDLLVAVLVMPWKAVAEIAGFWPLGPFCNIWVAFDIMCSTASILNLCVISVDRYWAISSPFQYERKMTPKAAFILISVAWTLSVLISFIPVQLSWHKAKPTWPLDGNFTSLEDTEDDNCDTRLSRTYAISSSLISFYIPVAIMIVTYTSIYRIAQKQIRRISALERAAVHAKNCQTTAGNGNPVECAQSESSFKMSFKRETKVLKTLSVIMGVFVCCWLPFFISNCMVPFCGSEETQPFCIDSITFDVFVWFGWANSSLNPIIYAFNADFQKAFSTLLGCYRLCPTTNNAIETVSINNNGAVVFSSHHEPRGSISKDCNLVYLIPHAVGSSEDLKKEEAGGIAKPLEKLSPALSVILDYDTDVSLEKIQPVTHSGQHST

Row | SMILES | melting point | Ki (rat D1 receptor) | inhibition at 1 µM (rat D1 receptor) | IC50 (human MAO-B) | Ki (human A3 (hA3) ARs) | inhibition at 1 µM (human A3 (hA3) ARs)
1 | CC(C)n1c(NCCc2ccc(O)c(O)c2)nc2c1c(=O)n(C)c(=O)n2C [Compound 11d, 8-((3,4-Dihydroxyphenethyl)amino)-7-isopropyl-1,3-dimethyl-3,7-dihydro-1H-purine-2,6-dione] | 180 to 182 °C | > 1000 nM | 15% | 126 ± 49 nM | > 1000 nM | 12%
2 | CCCCCCn1c(NCCc2ccc(O)c(O)c2)nc2c1c(=O)n(C)c(=O)n2C [Compound 11i, 8-((3,4-Dihydroxyphenethyl)amino)-7-hexyl-1,3-dimethyl-3,7-dihydro-1H-purine-2,6-dione] | 216 to 218 °C | > 1000 nM | 9% | 76.4 ± 0.7 nM | > 1000 nM | 3%
3 | Cn1c(=O)c2c(nc(NCCc3ccc(O)c(O)c3)n2CCOc2ccccc2)n(C)c1=O [Compound 11l, 8-((3,4-Dihydroxyphenethyl)amino)-1,3-dimethyl-7-(2-phenoxyethyl)-3,7-dihydro-1H-purine-2,6-dione] | 218 to 220 °C | > 1000 nM | 3% | 53.5 ± 18.2 nM | > 1000 nM | -2%
4 | Cn1c(=O)c2c(nc3n2CCCN3CCc2ccc(O)c(O)c2)n(C)c1=O [Compound 20a, 9-(3,4-Dihydroxyphenethyl)-1,3-dimethyl-6,7,8,9-tetrahydropyrimido[2,1-f]purine-2,4(1H,3H)-dione] | 213 to 215 °C | > 1000 nM | 15% | 121 ± 23 nM | > 1000 nM | -6%
5 | Cn1c(=O)c2c(nc3n2CCCCN3CCc2ccc(O)c(O)c2)n(C)c1=O [Compound 20b, 10-(3,4-Dihydroxyphenethyl)-1,3-dimethyl-7,8,9,10-tetrahydro-1H-[1, 3]diazepino[2,1-f]purine-2,4(3H,6H)-dione] | 232 to 235 °C | > 1000 nM | 15% | 101 ± 21 nM | > 1000 nM | -2%

Second part, the compound after the results:

Row | melting point | Ki (rat D1 receptor) | inhibition at 1 µM (rat D1 receptor) | IC50 (human MAO-B) | Ki (human A3 (hA3) ARs) | inhibition at 1 µM (human A3 (hA3) ARs) | SMILES
6 | 204 to 206 °C | > 1000 nM | 13% | 50.7 ± 10 nM | > 1000 nM | -1% | Cn1c(=O)c2c(nc(NCCc3ccc(O)c(O)c3)n2C)n(C)c1=O [Compound 11a, 8-((3,4-Dihydroxyphenethyl)amino)-1,3,7-trimethyl-3,7-dihydro-1H-purine-2,6-dione]
7 | 225 to 226 °C | > 1000 nM | 15% | 47.9 ± 8.4 nM | > 1000 nM | -5% | CCn1c(NCCc2ccc(O)c(O)c2)nc2c1c(=O)n(C)c(=O)n2C [Compound 11b, 8-((3,4-Dihydroxyphenethyl)amino)-7-ethyl-1,3-dimethyl-3,7-dihydro-1H-purine-2,6-dione]
